Experimental data as given in paper PMC4550478, “Metronidazole-triazole conjugates: Activity against Clostridium difficile and parasites” (European Journal of Medicinal Chemistry, 2015).
Values after ≈ are worked out from the molar mass of the structure shown.

Key:
[1] = test system: C. difficile NAP1/027 CD26A54_S; test: Metronidazole E-test on BAKHS, C. difficile CD26A54_S; assay type: cell-based, Clostridium difficile; details: Clostridioides difficile, BAKHS agar
Experimental: (§1) Mid-log phase (OD600 =0.5- 0.6) culture was diluted to a 0.5 McFarland standard (OD600~ 0.1) in prereduced broth. The diluted culture was inoculated onto duplicate BAKHS agar plate using a cotton tip applicator. The inoculum was allowed to dry before the Metronidazole E-test strip (Metronidazole MZH 256-S30, bioMérieux Australia) was placed in duplicate on the surface of the agar. The agar plate was inverted and incubated for up to 96 hr. The MIC was read as the point at which the elliptical zone of inhibition intercepted the E-test strip at 24, 48 and 96 hr.

[2] = test system: H. pylori clinical isolate 13/25; test: Metronidazole E-test, H. pylori 13/25; assay type: cell-based; details: Helicobacter pylori
Experimental: (§2) Helicobacter pylori strains, with a range of resistance levels to metronidazole (256 µg/ml, 64 µg/ml, 24 µg/ml, 2 µg/ml, and 0.04 µg/ml), were selected and obtained from Helicobacter Research Laboratory, University of Western Australia. The resistance strength to metronidazole was recorded according to eTest (bioMérieux). H. pylori strain 26695 was used as the control. H. pylori was maintained on the non-selective Columbia blood agar plates (CBA) (Columbia agar base Oxoid) with 5% horse blood and incubated at 37 °C and 10% CO2 for 48 hrs. […] Each of the H. pylori strains were harvested, OD600 calibrated to 0.3, and spotted in triplicate on CBA pre-mixed with the compound. The lowest concentration of antibiotic showing no growth was read as the MIC. The experiment was performed in duplicate.

[3] = test system: C. difficile NAP1/027 CD26A54_R; parameters: method as in PMID 24400070; details: cited from earlier work
[4] = test system: C. difficile NAP1/027 CD26A54_R; parameters: method as in PMID 24400070; details: cited from earlier work; remark: listed apart in the source
[5] = test system: C. difficile NAP1/027 CD26A54_R; test: Metronidazole E-test on BAKHS, C. difficile CD26A54_R; assay type: cell-based, Clostridium difficile; details: BAKHS agar; for MIC: Clostridioides difficile
Experimental: as §1

[6] = test system: H. pylori clinical isolate 98/285; test: Metronidazole E-test, H. pylori 98/285; assay type: cell-based; details: Helicobacter pylori
Experimental: as §2

[7] = test system: H. pylori clinical isolate 13/61; test: Metronidazole E-test, H. pylori 13/61; assay type: cell-based; details: Helicobacter pylori
Experimental: as §2

[8] = test system: C. difficile NAP1/027 ATCC BAA-1803; test: Metronidazole E-test on BAKHS, C. difficile ATCC BAA-1803; assay type: cell-based, Clostridium difficile; details: Clostridioides difficile, ATCCBAA1803, BAKHS agar
Experimental: as §1

Cc1ncc([N+](=O)[O-])n1CCO [Compound 1, metronidazole]
MIC ([1]; 24 hrs): 6 µg/mL (≈ 35.1 µM) | MIC ([1]; 48 hrs): 8 µg/mL (≈ 46.7 µM) | MIC ([1]; 96 hrs): 8 µg/mL (≈ 46.7 µM) | MIC [2]: 2 µg/mL (≈ 11.7 µM) | MIC to metronidazole in broth, MtzR C. difficile, reported by Chong et al. [3]: 8 µg/mL (≈ 46.7 µM) | Metronidazole MIC by E-test, MtzR C. difficile, reported by Chong et al. [4]: > 32 µg/mL | Metronidazole E-test MIC CD26A54_R ([5]; 48 hrs): 48 µg/mL | MIC ([5]; 24 hrs): 32 µg/mL (≈ 187 µM) | MIC ([5]; 48 hrs): 48 µg/mL (≈ 280 µM) | MIC ([5]; 96 hrs): 48 µg/mL (≈ 280 µM) | MIC [6]: 24 µg/mL (≈ 140 µM) | MIC [7]: 256 µg/mL (≈ 1500 µM) | MIC ([8]; 24 hrs): 2 µg/mL (≈ 11.7 µM) | MIC ([8]; 48 hrs): 2 µg/mL (≈ 11.7 µM) | MIC ([8]; 96 hrs): 2 µg/mL (≈ 11.7 µM)
